From ChEMBL document CHEMBL1201862, “PubChem BioAssay data set” (2004)
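Briefly, cells in 96-well plates were exposed to five compound concentrations for 48 h, and endpoints were estimated by linear interpolation. GI50 = concentration required for 50% inhibition of growth.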 The source made the active and inactive calls. Cut-off read from the data, not from the text of the source: active = GI50 up to about 1.1 µM and inactive = higher.

Columns and labels:
Test in all cases: NCI tumour cell line growth inhibition, 48 h
786-0 = tested on: 786-0
A498 = tested on: A498
ACHN = tested on: ACHN
BT-549 = tested on: BT-549
DU-145 = tested on: DU-145
HOP-92 = tested on: HOP-92
HT-29 = tested on: HT-29
LOX IMVI = tested on: LOX IMVI
MCF7 = tested on: MCF7
MDA-MB-231 = tested on: MDA-MB-231
MOLT-4 = tested on: MOLT-4
OVCAR-4 = tested on: OVCAR-4
SF-295 = tested on: SF-295
SF-539 = tested on: SF-539
SNB-19 = tested on: SNB-19
SR = tested on: SR
SW-620 = tested on: SW-620
UACC-62 = tested on: UACC-62
CAKI-1 = tested on: CAKI-1
CCRF-CEM = tested on: CCRF-CEM

Measured: GI50

N/C(=N\c1ccc(Cl)cc1)NS(=O)(=O)c1ccc(-c2ncccc2C(F)(F)F)s1
inactive: 786-0 17.1 µM | A498 16.7 µM | ACHN 16 µM | BT-549 14.9 µM | DU-145 17.1 µM | HOP-92 14.7 µM | HT-29 19.4 µM | LOX IMVI 14 µM | MCF7 14.7 µM | MDA-MB-231 13.9 µM | MOLT-4 12.7 µM | OVCAR-4 18.5 µM | SF-295 16.1 µM | SF-539 25.8 µM | SNB-19 18.6 µM | SR 10.5 µM | SW-620 15.3 µM | UACC-62 11.3 µM

Cc1ccc(S(=O)(=O)N2CCCCN(S(=O)(=O)c3ccc(C)cc3)Cc3ccccc3OCCOCCOc3c4cccc3Cc3cccc5c3OCCOCCOc3ccccc3CN(S(=O)(=O)c3ccc(C)cc3)CCCN(S(=O)(=O)c3ccc(C)cc3)Cc3ccccc3OCCOCCOc3c(cccc3C4)Cc3cccc(c3OCCOCCOc3ccccc3C2)C5)cc1
inactive: 786-0 > 100 µM | A498 53.2 µM | ACHN > 100 µM | BT-549 > 100 µM | CAKI-1 > 100 µM | CCRF-CEM > 100 µM | DU-145 > 100 µM | HOP-92 > 100 µM | HT-29 > 100 µM | LOX IMVI > 100 µM | MCF7 > 100 µM | MDA-MB-231 > 100 µM | MOLT-4 > 100 µM | OVCAR-4 > 100 µM | SF-295 > 100 µM | SF-539 > 100 µM | SNB-19 > 100 µM | SW-620 > 100 µM | UACC-62 > 100 µM

COc1ccc(OCc2nc3cc(C(F)(F)F)ccc3nc2-c2ccccc2)cc1
inactive: 786-0 > 100 µM | A498 94.8 µM | ACHN > 100 µM | BT-549 > 100 µM | CAKI-1 > 100 µM | CCRF-CEM > 100 µM | DU-145 > 100 µM | HOP-92 > 100 µM | HT-29 > 100 µM | LOX IMVI > 100 µM | MCF7 > 100 µM | MDA-MB-231 27.4 µM | MOLT-4 > 100 µM | OVCAR-4 > 100 µM | SF-295 > 100 µM | SF-539 > 100 µM | SNB-19 > 100 µM | SW-620 > 100 µM | UACC-62 > 100 µM

COc1cc(C(=O)n2c3ccc(Br)cc3c3nc4ccccc4nc32)cc(OC)c1OC
inactive: 786-0 44.8 µM | ACHN 37.9 µM | BT-549 37.3 µM | CAKI-1 > 100 µM | CCRF-CEM > 100 µM | DU-145 > 100 µM | HOP-92 54.5 µM | HT-29 > 100 µM | LOX IMVI > 100 µM | MCF7 > 100 µM | MDA-MB-231 72.8 µM | MOLT-4 50.8 µM | OVCAR-4 > 100 µM | SF-295 64 µM | SF-539 23.8 µM | SNB-19 51.6 µM | SR > 100 µM | SW-620 > 100 µM | UACC-62 42.6 µM

O=c1ccc(=O)n(-c2ccccc2)[nH]1
inactive: 786-0 > 100 µM | A498 > 100 µM | ACHN > 100 µM | BT-549 > 100 µM | CAKI-1 > 100 µM | CCRF-CEM > 100 µM | DU-145 > 100 µM | HOP-92 > 100 µM | HT-29 > 100 µM | LOX IMVI > 100 µM | MCF7 > 100 µM | MDA-MB-231 > 100 µM | MOLT-4 > 100 µM | OVCAR-4 > 100 µM | SF-295 > 100 µM | SF-539 > 100 µM | SNB-19 > 100 µM | SW-620 > 100 µM | UACC-62 > 100 µM

CCC(=O)N1NC(=O)C(CC)(CC)C1=O
inactive: 786-0 > 100 µM | ACHN > 100 µM | BT-549 > 100 µM | CAKI-1 > 100 µM | CCRF-CEM > 100 µM | DU-145 > 100 µM | HT-29 > 100 µM | LOX IMVI > 100 µM | MCF7 > 100 µM | MDA-MB-231 > 100 µM | MOLT-4 > 100 µM | OVCAR-4 > 100 µM | SF-295 > 100 µM | SNB-19 > 100 µM | SR > 100 µM | SW-620 > 100 µM | UACC-62 > 100 µM

COc1cc2c(cc1OC)C(=O)/C(=C/c1ccc(O)cc1)CC2
inactive: 786-0 > 10 µM | ACHN > 10 µM | BT-549 > 10 µM | CAKI-1 5.82 µM | CCRF-CEM 1.97 µM | DU-145 > 10 µM | HOP-92 > 10 µM | HT-29 > 10 µM | LOX IMVI > 10 µM | MCF7 > 10 µM | MDA-MB-231 > 10 µM | MOLT-4 > 10 µM | OVCAR-4 > 10 µM | SF-295 > 10 µM | SF-539 > 10 µM | SNB-19 > 10 µM | SR > 10 µM | SW-620 > 10 µM | UACC-62 > 10 µM

CC(=O)Nc1c(C)cc2c(nc3n2CCC3O)c1[N+](=O)[O-] (centres undefined)
inactive: 786-0 > 100 µM | A498 > 100 µM | ACHN > 100 µM | BT-549 > 100 µM | CAKI-1 > 100 µM | CCRF-CEM > 100 µM | DU-145 > 100 µM | HOP-92 > 100 µM | HT-29 > 100 µM | LOX IMVI > 100 µM | MCF7 > 100 µM | MDA-MB-231 > 100 µM | MOLT-4 > 100 µM | OVCAR-4 > 100 µM | SF-295 > 100 µM | SF-539 > 100 µM | SNB-19 > 100 µM | SW-620 > 100 µM | UACC-62 > 100 µM

COc1cc([C@H]2CC(=O)C[C@@H](c3cc(OC)c(OC)c(OC)c3)C23C(=O)c2ccccc2C3=O)cc(OC)c1OC
inactive: 786-0 > 100 µM | ACHN > 100 µM | BT-549 > 100 µM | CAKI-1 > 100 µM | CCRF-CEM > 100 µM | DU-145 > 100 µM | HOP-92 > 100 µM | HT-29 > 100 µM | LOX IMVI > 100 µM | MCF7 > 100 µM | MDA-MB-231 > 100 µM | MOLT-4 > 100 µM | OVCAR-4 > 100 µM | SF-295 > 100 µM | SF-539 > 100 µM | SNB-19 > 100 µM | SR > 100 µM | SW-620 > 100 µM | UACC-62 > 100 µM

[N-]=[N+]=C(C(=O)CN1CCCC1=O)S(=O)(=O)c1ccccc1
inactive: 786-0 > 100 µM | ACHN > 100 µM | BT-549 > 100 µM | CCRF-CEM > 100 µM | DU-145 > 100 µM | HT-29 > 100 µM | LOX IMVI > 100 µM | MCF7 > 100 µM | MDA-MB-231 > 100 µM | MOLT-4 > 100 µM | SF-295 > 100 µM | SF-539 > 100 µM | SNB-19 > 100 µM | SR > 100 µM | SW-620 > 100 µM | UACC-62 > 100 µM
